Test results: PubChem BioAssay (NCI)
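GI50: concentration for 50% inhibition of growth. TGI: concentration producing complete growth inhibition.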

Assays:
Assay in all cases: growth of human tumour cells (NCI), 384-well format
HT29 colon = system: HT29 colon
TK-10 renal = system: TK-10 renal
NCI-H322M lung = system: NCI-H322M lung
HOP-92 NSCLC = system: HOP-92 NSCLC
A549 NSCLC = system: A549 NSCLC
NCI/ADR-RES ovarian = system: NCI/ADR-RES ovarian
SN12C renal = system: SN12C renal
UO-31 renal = system: UO-31 renal
M14 melanoma = system: M14 melanoma
786-0 renal = system: 786-0 renal
MDA-MB-468 breast = system: MDA-MB-468 breast
HOP-62 NSCLC = system: HOP-62 NSCLC
SK-MEL-28 melanoma = system: SK-MEL-28 melanoma
OVCAR-5 ovarian = system: OVCAR-5 ovarian
SNB-75 CNS = system: SNB-75 CNS
LOX IMVI melanoma = system: LOX IMVI melanoma
IGROV1 ovarian = system: IGROV1 ovarian
SF-295 CNS = system: SF-295 CNS
OVCAR-3 ovarian = system: OVCAR-3 ovarian
UACC-62 melanoma = system: UACC-62 melanoma
UACC-257 melanoma = system: UACC-257 melanoma
HCC-2998 colon = system: HCC-2998 colon
HCT-116 colon = system: HCT-116 colon
SNB-19 CNS = system: SNB-19 CNS
COLO 205 colon = system: COLO 205 colon
NCI-H226 lung = system: NCI-H226 lung
T-47D breast = system: T-47D breast
NCI-H522 lung = system: NCI-H522 lung
HCT-15 colon = system: HCT-15 colon
PC-3 prostate = system: PC-3 prostate
HL-60(TB) leukemia = system: HL-60(TB) leukemia
K-562 leukemia = system: K-562 leukemia
NCI-H460 NSCLC = system: NCI-H460 NSCLC
MALME-3M melanoma = system: MALME-3M melanoma
MOLT-4 leukemia = system: MOLT-4 leukemia
NCI-H23 lung = system: NCI-H23 lung
HS 578T breast = system: HS 578T breast
MDA-MB-435 melanoma = system: MDA-MB-435 melanoma
BT-549 breast = system: BT-549 breast
SF-539 CNS = system: SF-539 CNS
SK-OV-3 ovarian = system: SK-OV-3 ovarian
CCRF-CEM leukemia = system: CCRF-CEM leukemia
RXF 393 renal = system: RXF 393 renal
OVCAR-4 ovarian = system: OVCAR-4 ovarian
MCF7 breast = system: MCF7 breast
RPMI-8226 leukemia = system: RPMI-8226 leukemia
DU-145 prostate = system: DU-145 prostate
EKVX NSCLC = system: EKVX NSCLC
A498 renal = system: A498 renal
KM12 colon = system: KM12 colon
OVCAR-8 ovarian = system: OVCAR-8 ovarian
MDA-MB-231 breast = system: MDA-MB-231 breast
SK-MEL-5 melanoma = system: SK-MEL-5 melanoma
U251 glioblastoma = system: U251 glioblastoma
SF-268 CNS = system: SF-268 CNS
ACHN renal = system: ACHN renal
SW-620 colon = system: SW-620 colon
CAKI-1 renal = system: CAKI-1 renal

CCN1CCN(c2ccc(Nc3cc(N(C)C(=O)Nc4c(Cl)c(OC)cc(OC)c4Cl)ncn3)cc2)CC1
GI50 (HT29 colon): 756 nM | TGI (HT29 colon): 2020 nM | GI50 (TK-10 renal): 1550 nM | TGI (TK-10 renal): 3.44 µM | GI50 (NCI-H322M lung): 2300 nM | TGI (NCI-H322M lung): 6.25 µM | GI50 (HOP-92 NSCLC): 1700 nM | TGI (HOP-92 NSCLC): 3.36 µM | GI50 (A549 NSCLC): 1910 nM | TGI (A549 NSCLC): 3.85 µM | GI50 (NCI/ADR-RES ovarian): 2160 nM | TGI (NCI/ADR-RES ovarian): 4.89 µM | GI50 (SN12C renal): 753 nM | TGI (SN12C renal): 2200 nM | GI50 (UO-31 renal): 1370 nM | TGI (UO-31 renal): 2670 nM | GI50 (M14 melanoma): 1390 nM | TGI (M14 melanoma): 2690 nM | GI50 ([…]-0 renal): 1430 nM | TGI (786-0 renal): 2760 nM | GI50 (MDA-MB-468 breast): 1290 nM | TGI (MDA-MB-468 breast): 2610 nM | GI50 (HOP-62 NSCLC): 1910 nM | TGI (HOP-62 NSCLC): 3.93 µM | GI50 (SK-MEL-28 melanoma): 1860 nM | TGI (SK-MEL-28 melanoma): 3.28 µM | GI50 (OVCAR-5 ovarian): 2180 nM | TGI (OVCAR-5 ovarian): 5.14 µM | GI50 (SNB-75 CNS): 193 nM | TGI (SNB-75 CNS): 2290 nM | GI50 (LOX IMVI melanoma): 1660 nM | TGI (LOX IMVI melanoma): 3.06 µM | GI50 (IGROV1 ovarian): 273 nM | TGI (IGROV1 ovarian): 702 nM | GI50 (SF-295 CNS): 1750 nM | TGI (SF-295 CNS): 3.16 µM | GI50 (OVCAR-3 ovarian): 1040 nM | TGI (OVCAR-3 ovarian): 2340 nM | GI50 (UACC-62 melanoma): 1720 nM | TGI (UACC-62 melanoma): 3.13 µM | GI50 (UACC-257 melanoma): 1610 nM | TGI (UACC-257 melanoma): 2960 nM | GI50 (HCC-2998 colon): 1920 nM | TGI (HCC-2998 colon): 3.89 µM | GI50 (HCT-116 colon): 1440 nM | TGI (HCT-116 colon): 2800 nM | GI50 (SNB-19 CNS): 2500 nM | TGI (SNB-19 CNS): 7.51 µM | GI50 (COLO 205 colon): 1940 nM | TGI (COLO 205 colon): 3.44 µM | GI50 (NCI-H226 lung): 24.6 nM | TGI (NCI-H226 lung): 5.81 µM | GI50 (T-47D breast): 453 nM | TGI (T-47D breast): 1420 nM | GI50 (NCI-H522 lung): 475 nM | TGI (NCI-H522 lung): 1460 nM | GI50 (HCT-15 colon): 688 nM | TGI (HCT-15 colon): 2390 nM | GI50 (PC-3 prostate): 2040 nM | TGI (PC-3 prostate): 4.95 µM | GI50 (HL-60(TB) leukemia): 1880 nM | TGI (HL-60(TB) leukemia): 3.3 µM | GI50 (K-562 leukemia): 430 nM | TGI (K-562 leukemia): 1480 nM | GI50 (NCI-H460 NSCLC): 1230 nM | TGI (NCI-H460 NSCLC): 2530 nM | GI50 (MALME-3M melanoma): 1470 nM | TGI (MALME-3M melanoma): 2800 nM | GI50 (MOLT-4 leukemia): 1170 nM | TGI (MOLT-4 leukemia): 2390 nM | GI50 (NCI-H23 lung): 2340 nM | TGI (NCI-H23 lung): 6.21 µM | GI50 (HS 578T breast): 1190 nM | TGI (HS 578T breast): 2500 nM | GI50 (MDA-MB-435 melanoma): 1880 nM | TGI (MDA-MB-435 melanoma): 3.34 µM | GI50 (BT-549 breast): 518 nM | TGI (BT-549 breast): 1990 nM | GI50 (SF-539 CNS): 1420 nM | TGI (SF-539 CNS): 2830 nM | GI50 (SK-OV-3 ovarian): 365 nM | TGI (SK-OV-3 ovarian): 1360 nM | GI50 (CCRF-CEM leukemia): 1580 nM | TGI (CCRF-CEM leukemia): 2950 nM | GI50 (RXF 393 renal): 1290 nM | TGI (RXF 393 renal): 2590 nM | GI50 (OVCAR-4 ovarian): 1280 nM | TGI (OVCAR-4 ovarian): 3.36 µM | GI50 (MCF7 breast): 1410 nM | TGI (MCF7 breast): 2950 nM | GI50 (RPMI-8226 leukemia): 1900 nM | TGI (RPMI-8226 leukemia): 3.33 µM | GI50 (DU-145 prostate): 1760 nM | TGI (DU-145 prostate): 5.32 µM | GI50 (EKVX NSCLC): 1190 nM | TGI (EKVX NSCLC): 2930 nM | GI50 (A498 renal): 478 nM | TGI (A498 renal): 1920 nM | GI50 (KM12 colon): 2230 nM | TGI (KM12 colon): 4.3 µM | GI50 (OVCAR-8 ovarian): 1770 nM | TGI (OVCAR-8 ovarian): 3.38 µM | GI50 (MDA-MB-231 breast): 2130 nM | TGI (MDA-MB-231 breast): 4.72 µM | GI50 (SK-MEL-5 melanoma): 1300 nM | TGI (SK-MEL-5 melanoma): 2580 nM | GI50 (U251 glioblastoma): 1460 nM | TGI (U251 glioblastoma): 2800 nM | GI50 (SF-268 CNS): 1110 nM | TGI (SF-268 CNS): 2610 nM | GI50 (ACHN renal): 1400 nM | TGI (ACHN renal): 3000 nM | GI50 (SW-620 colon): 1840 nM | TGI (SW-620 colon): 3.47 µM | GI50 (CAKI-1 renal): 590 nM | TGI (CAKI-1 renal): 2120 nM
